Measurements: patent publication US20250066423A1, “SESTRIN-MAPK COMPLEX INHIBITORS” (Sentcell Ltd, priority 2021, published 2025)

Legend:
[1] = tested on: sMAC signalling (sestrin 1, 2 and 3 expression, AMPK and MAPK phosphorylation); test: Immunoblot of sMAC signalling in CD4+ T cells treated with DOS compounds (heat-map); type: cell-based, human
Protocol: CD4+ T cells were isolated from PBMCs from healthy donors, treated with DOS compounds for 4 hours and harvested for immunoblot analysis. The heat-map of Sestrin 1, Sestrin 2, Sestrin 3, p-mTOR1, p-JNK, p-AMPK, p-ERK1/2, and p-p38, represents the mean of three to nine experiments. Histone 3 was used as a control.
• 1. CD4+ cells were separated from PBMC using appropriate microbeads kit (Miltenyi) • 2. Cells were resuspended in whole RPMI medium and plated in the 24-multiwell plate • 3. Then activated for 4 hrs with DOS compounds • 4. Cells were then harvested, washed with PBS and resuspended in lysis buffer (RIPA with […]) • 5. The cell-lysis mix was incubated for 20 mins on ice • 6. Samples were centrifuged for 20 mins at the max speed • 7. The supernatant was collected and Lemmli buffer+β-Mercaptoethanol was added • 8. Samples were then boiled for 5 mins at 95° C. • 9. Samples were loaded on the polyacrylamide gel and left to run in TRIS-Glycine-SDS running buffer • 10. Once the run was completed the proteins were transferred from the gel to the nitrocellulose membrane by using the Trans-Blot machine (Biorad) • 11. Membrane was washed with 0.1% Tween-TBS buffer and blocked in 5% non-fat milk for 1 hr • 12. Followed incubation with the primary antibody o.n. • 13. The day after, the membrane was washed with 0.1% Tween-TBS buffer for three times for at least 30 mins each • 14. Secondary antibody was then added for 1h • 15. The membrane was the washed with 0.1% Tween-TBS buffer for three times for at least 30 mins each • 16. The signal was developed using ECL solution
This was shown by downregulation of sestrin 1, 2 and 3 expression, and AMPK and MAPK phosphorylation.

[2] = tested on: H1N1 PR8/54; type: in vivo, mice; conditions: old mice, vaccination with DOS, H1N1 PR8/54
[3] = tested on: Breast cancer cell line (MCF-7); test: Cancer cell death by FACS live-dead staining; type: cell-based; conditions: 20 uM, 48 hours
Protocol: (§1) (Left) Immortalized paediatric neuroblastoma cell line (sh-sy5y) was treated at different concentrations of DOS46L and DOS144D (from 1 uM to 20 uM) for 48 hours, then analysed by FACS with live-dead staining. (Right) Breast cancer cell line (MCF-7) was treated at the fixed concentration of DOS46L and DOS144D (20 uM) for 48 hours, then analysed by FACS with live-dead dye staining. UN depicts untreated controls. Results of triplicate cultures are shown.

[4] = tested on: paediatric neuroblastoma cell line (sh-sy5y); test: Cancer cell death by FACS live-dead staining; type: cell-based; conditions: 1 uM to 20 uM, 48 hours
Protocol: as §1

[5] = biological target: T1, Sestrin 2 (Homo sapiens, UniProt P58004); test: Streptavidin pull-down of biotinylated DOS46L with flag recombinant sestrins; type: binding; conditions: streptavidin immunoprecipitation
T1 sequence (P58004 1-480): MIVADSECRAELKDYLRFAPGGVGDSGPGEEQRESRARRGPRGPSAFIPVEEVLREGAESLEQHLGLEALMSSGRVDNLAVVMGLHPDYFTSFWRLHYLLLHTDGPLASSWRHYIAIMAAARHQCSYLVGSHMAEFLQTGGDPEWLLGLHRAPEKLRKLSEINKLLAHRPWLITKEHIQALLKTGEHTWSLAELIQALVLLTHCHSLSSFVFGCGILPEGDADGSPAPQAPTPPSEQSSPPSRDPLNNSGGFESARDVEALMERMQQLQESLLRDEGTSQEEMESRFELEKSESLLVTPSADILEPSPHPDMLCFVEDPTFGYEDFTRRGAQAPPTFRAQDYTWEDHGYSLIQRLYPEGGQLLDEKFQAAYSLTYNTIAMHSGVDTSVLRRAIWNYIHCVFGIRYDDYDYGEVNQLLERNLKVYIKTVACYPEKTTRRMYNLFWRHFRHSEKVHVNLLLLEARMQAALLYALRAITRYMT
Protocol: (§2) (A) Biotinylated DOS46L was mixed with flag recombinant Sestrins, immunoprecipitated with streptavidin and immunoblotted with flag Sestrins. […] Representative images from three experiments are shown. […] (D) DOS46L binds to the entire sMAC complex in CD4 T cells. CD4+ T cells were isolated from PBMCs from healthy donors and treated with biotinylated DOS46L compound (10 uM) for 4 hours. Cells were harvested for immunoprecipitation analysis.
(§3) The selective interaction was also studied using the cutting-edge […] algorithm for molecular docking predictions based on the deposited sestrin 2 crystal structure.

[6] = biological target: T2, sestrin 1 (Homo sapiens, UniProt Q9Y6P5); test: as above; type: binding; conditions: streptavidin immunoprecipitation
T2 sequence (Q9Y6P5 1-492): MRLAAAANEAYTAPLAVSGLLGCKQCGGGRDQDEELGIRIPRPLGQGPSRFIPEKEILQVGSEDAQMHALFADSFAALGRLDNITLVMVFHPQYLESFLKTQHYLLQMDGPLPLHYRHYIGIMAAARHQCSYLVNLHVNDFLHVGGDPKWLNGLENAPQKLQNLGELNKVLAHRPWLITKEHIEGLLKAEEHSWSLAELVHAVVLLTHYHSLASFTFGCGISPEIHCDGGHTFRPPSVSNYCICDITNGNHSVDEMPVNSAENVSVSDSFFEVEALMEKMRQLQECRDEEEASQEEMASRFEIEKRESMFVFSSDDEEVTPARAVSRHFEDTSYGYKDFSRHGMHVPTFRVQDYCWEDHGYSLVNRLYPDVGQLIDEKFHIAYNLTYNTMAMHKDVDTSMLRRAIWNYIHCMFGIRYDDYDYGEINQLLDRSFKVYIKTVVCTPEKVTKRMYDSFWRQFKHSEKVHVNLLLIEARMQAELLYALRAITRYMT
Protocol: as §2, §3

[7] = biological target: T3, GATOR complex (WDR59 and mTOR) (Homo sapiens, UniProt P42345+Q6PJI9); test: Pull-down of biotinylated DOS46L from CD4+ T cells; type: binding; conditions: 10 uM, 4 hours
T3 construct: endogenous in cells; host or cells: primary CD4+ T cells from PBMCs of healthy donors
Protocol: as §2
(§4) • 1. Cell pellet was lysed with 100 μL of denaturing lysis buffer • 2. Then mixed well by vortexing vigorously for 2-3 sec at maximum speed. • 3. Samples were then boiled at 95° C. for 5 min. • 4. Samples were then diluted 900 μl of non-denaturing lysis buffer and mixed gently. • 5. Cell lysates were then passed through a needle attached to a 1 ml syringe for 5-10 times or were sonicated. • 6. Incubated then on ice for 5 min • 7. Samples were pre-cleaned by spinning at the max speed at 4° C. for 20 min. • 8. Supernatants were collected in a new tube • 9. 7 ul (5 μg) of SESN2 (abcam) primary anti-body was added directly to the supernatant and incubated on the rota o.n. at 4° C. • 10. 200 ul of protein A/G beads were washed 4-5 times in IP buffer and blocked then o.n. in IP buffer with BSA and left on the rota at 4° C. • 11. The day after, 50 ul of protein A/G beads were added to the sample and incubated for 3 hrs on the rota at 4° C. • 12. […]

[8] = biological target: T4, sMAC (sestrin 1, 2, and 3, AMPK and MAPKs) (Homo sapiens, UniProt P58004+Q9Y6P5); test: Pull-down of biotinylated DOS46L from CD4+ T cells; type: binding; conditions: 10 uM, 4 hours
T4 construct: endogenous in cells; host or cells: primary CD4+ T cells from PBMCs of healthy donors
T4 sequence (Q9Y6P5 1-492): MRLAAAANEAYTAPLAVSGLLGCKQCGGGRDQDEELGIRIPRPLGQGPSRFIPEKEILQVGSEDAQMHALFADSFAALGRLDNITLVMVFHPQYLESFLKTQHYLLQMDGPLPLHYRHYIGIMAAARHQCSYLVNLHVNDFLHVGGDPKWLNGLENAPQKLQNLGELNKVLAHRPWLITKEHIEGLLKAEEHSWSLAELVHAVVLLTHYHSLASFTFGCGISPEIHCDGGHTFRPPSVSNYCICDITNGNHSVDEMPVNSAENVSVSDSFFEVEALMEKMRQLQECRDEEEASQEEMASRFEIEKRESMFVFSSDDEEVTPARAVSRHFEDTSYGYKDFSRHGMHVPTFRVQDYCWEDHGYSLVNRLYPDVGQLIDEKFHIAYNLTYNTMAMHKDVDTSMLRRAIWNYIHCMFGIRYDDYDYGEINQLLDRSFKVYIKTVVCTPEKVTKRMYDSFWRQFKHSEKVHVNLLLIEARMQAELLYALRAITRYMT
T4 sequence (P58004 1-480): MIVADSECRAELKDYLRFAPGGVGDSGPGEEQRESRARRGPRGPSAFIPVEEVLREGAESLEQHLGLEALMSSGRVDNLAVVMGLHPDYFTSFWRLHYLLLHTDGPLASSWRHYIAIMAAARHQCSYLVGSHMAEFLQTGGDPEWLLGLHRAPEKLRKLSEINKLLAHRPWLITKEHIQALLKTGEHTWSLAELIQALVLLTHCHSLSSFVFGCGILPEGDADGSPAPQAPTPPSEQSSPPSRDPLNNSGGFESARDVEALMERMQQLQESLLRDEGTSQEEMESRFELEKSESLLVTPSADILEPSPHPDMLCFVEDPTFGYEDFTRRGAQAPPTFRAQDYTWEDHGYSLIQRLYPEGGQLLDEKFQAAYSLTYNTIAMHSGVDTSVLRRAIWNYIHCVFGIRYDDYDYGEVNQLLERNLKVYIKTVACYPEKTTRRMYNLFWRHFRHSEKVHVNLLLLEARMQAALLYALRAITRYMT
T4 sequence (P58005 1-492 partner): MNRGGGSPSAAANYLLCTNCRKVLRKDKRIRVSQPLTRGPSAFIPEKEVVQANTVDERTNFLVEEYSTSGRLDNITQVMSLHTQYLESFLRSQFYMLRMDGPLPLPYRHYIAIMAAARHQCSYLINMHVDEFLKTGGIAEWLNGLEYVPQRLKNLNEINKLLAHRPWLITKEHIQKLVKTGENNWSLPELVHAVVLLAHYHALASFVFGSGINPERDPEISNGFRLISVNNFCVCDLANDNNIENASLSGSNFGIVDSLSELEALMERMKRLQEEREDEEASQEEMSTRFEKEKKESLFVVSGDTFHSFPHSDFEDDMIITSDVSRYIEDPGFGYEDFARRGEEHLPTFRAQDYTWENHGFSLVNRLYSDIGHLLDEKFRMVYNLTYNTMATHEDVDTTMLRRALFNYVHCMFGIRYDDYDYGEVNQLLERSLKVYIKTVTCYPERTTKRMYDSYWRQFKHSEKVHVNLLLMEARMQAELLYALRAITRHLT
Protocol: as §2, §4

[9] = biological target: T5, flag recombinant Sestrin 3 (UniProt P58005 1-492, limits assumed); test: recombinant sestrins, precipitation and immunoblot (FIG. 8B-C)
T5 construct: also called flagged sestrin 3; not shown: flag tag
T5 sequence (looked up): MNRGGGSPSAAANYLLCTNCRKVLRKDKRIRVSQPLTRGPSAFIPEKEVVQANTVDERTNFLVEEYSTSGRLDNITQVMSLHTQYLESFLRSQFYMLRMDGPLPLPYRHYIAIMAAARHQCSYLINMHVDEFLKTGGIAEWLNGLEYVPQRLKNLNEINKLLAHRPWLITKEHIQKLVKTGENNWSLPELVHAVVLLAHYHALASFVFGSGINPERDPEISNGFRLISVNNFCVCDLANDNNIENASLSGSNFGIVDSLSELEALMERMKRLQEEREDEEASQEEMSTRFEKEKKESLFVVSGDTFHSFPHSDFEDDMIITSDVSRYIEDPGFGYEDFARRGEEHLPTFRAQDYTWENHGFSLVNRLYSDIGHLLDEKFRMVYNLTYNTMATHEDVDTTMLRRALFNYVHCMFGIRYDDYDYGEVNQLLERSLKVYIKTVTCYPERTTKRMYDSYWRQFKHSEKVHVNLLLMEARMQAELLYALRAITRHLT

T3 sequence (Q6PJI9 whole entry, other chains not shown): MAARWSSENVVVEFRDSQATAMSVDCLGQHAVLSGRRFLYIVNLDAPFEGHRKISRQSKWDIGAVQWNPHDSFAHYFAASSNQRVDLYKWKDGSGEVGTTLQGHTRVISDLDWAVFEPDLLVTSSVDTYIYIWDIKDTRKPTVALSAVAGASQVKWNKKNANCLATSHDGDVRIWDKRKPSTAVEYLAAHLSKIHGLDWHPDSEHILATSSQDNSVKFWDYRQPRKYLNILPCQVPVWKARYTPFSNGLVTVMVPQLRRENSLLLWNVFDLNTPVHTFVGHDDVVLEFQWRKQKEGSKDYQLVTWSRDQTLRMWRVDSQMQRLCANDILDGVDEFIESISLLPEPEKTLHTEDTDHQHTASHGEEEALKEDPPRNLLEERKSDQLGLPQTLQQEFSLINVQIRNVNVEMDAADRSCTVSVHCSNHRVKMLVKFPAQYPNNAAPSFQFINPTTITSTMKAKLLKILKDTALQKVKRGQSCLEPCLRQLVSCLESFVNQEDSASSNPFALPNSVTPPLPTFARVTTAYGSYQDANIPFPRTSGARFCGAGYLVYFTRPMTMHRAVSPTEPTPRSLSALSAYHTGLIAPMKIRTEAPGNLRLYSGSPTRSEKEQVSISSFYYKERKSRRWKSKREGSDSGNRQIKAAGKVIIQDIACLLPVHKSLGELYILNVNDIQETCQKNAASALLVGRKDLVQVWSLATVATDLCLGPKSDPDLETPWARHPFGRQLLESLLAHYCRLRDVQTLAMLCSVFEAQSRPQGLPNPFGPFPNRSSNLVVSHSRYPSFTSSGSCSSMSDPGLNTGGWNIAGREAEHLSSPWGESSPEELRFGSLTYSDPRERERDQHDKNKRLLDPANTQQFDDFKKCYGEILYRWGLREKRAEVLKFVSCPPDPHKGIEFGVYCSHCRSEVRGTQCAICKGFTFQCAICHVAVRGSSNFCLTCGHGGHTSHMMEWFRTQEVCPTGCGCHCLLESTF

CC(C)C[C@H]1NC(=O)[C@@H](CC(C)C)NC(=O)[C@@H](Cc2c[nH]c3ccccc23)NC(=O)[C@@H](CCC(=O)O)NC(=O)CNC1=O [DOS144D]
effectiveness at sMAC inactivation among all of the DOS compounds tested [1]: most effective
sestrins inhibited (pan or selective inhibitor) ([1]; CD4+ T cells, 4 hours, FIG. 5 heat-map): inhibit all three sestrins
survival data, comparison of compounds [2]: similar
cancer cell death [3]: induction of cancer cell death
cancer cell death [4]: induction of cancer cell death

biotinylated DOS46L: biotinylated variant of DOS46L used for pull-down (cyclo(AFIPV); also: biotinylated, site not given here)
direct binding to sestrin 2 [5]: directly binds
direct binding to sestrin 1 [6]: directly binds
association with elements of the GATOR complex in cells [7]: not with elements of the GATOR complex
association with sMAC in cells [8]: found in the sMAC

B1: flag recombinant Sestrin 1 (other, UniProt Q9Y6P5 1-492, looked up)
chain: MRLAAAANEAYTAPLAVSGLLGCKQCGGGRDQDEELGIRIPRPLGQGPSRFIPEKEILQVGSEDAQMHALFADSFAALGRLDNITLVMVFHPQYLESFLKTQHYLLQMDGPLPLHYRHYIGIMAAARHQCSYLVNLHVNDFLHVGGDPKWLNGLENAPQKLQNLGELNKVLAHRPWLITKEHIEGLLKAEEHSWSLAELVHAVVLLTHYHSLASFTFGCGISPEIHCDGGHTFRPPSVSNYCICDITNGNHSVDEMPVNSAENVSVSDSFFEVEALMEKMRQLQECRDEEEASQEEMASRFEIEKRESMFVFSSDDEEVTPARAVSRHFEDTSYGYKDFSRHGMHVPTFRVQDYCWEDHGYSLVNRLYPDVGQLIDEKFHIAYNLTYNTMAMHKDVDTSMLRRAIWNYIHCMFGIRYDDYDYGEINQLLDRSFKVYIKTVVCTPEKVTKRMYDSFWRQFKHSEKVHVNLLLIEARMQAELLYALRAITRYMT
notes: also called flagged sestrin 1; not shown: flag tag
binding result [9]: no binding
